From patent publication US20130309238A1, “SIGNAL TRANSDUCTION PATHWAY MODULATION” (NEWCASTLE INNOVATION LIMITED, priority 2010, published 2013)

Legend:
[1] = test system: HDM-allergic mice; assay: Airway inflammation, mucus-producing cells and BALF cells in HDM-induced allergic airways disease; format: in vivo, BALB/c mice
Method: Mice were sensitized and challenged by exposing them intranasally to house dust mite (HDM) (50 mcg daily at day 0, 1, and 2 followed by 5×5 mcg daily from day 14 to day 17 delivered in 50 μl of sterile saline). The single dose of HDM employed in initial studies was 50 mcg/50 μl of sterile saline. Non-sensitized mice received sterile saline only. Lung tissue was stained, cells identified by morphological criteria, and quantitated by counting ten high power fields (HPFs) in each slide. […] Specifically, allergic mice were treated with a commercially available (Ambion) in-vitro validated small interfering (si)RNA directed against Midline-1 (SEQ ID NO:3) (MID1 siRNA) or a scrambled nonsense siRNA (control) following previously established protocols. BALB/c mice were anesthetised with isoflurane before being sensitised with the intranasal administration of either 50 μg House Dust Mite antigen (HDM) in 50 μl of sterile saline or 50 μl of sterile saline in control groups. This sensitisation was repeated at days 1 and 2 following initial sensitisation. On day 14 following initial sensitisation the mice were again anesthetised with isoflurane before receiving intranasal challenge with 5 μg of HDM in […] of sterile water. This challenge dosage was repeated daily from day 14 through 17. Mice received intranasal administration of maked Mid-1 siRNA or scramble control in 25 μl of saline under isoflurane anaesthesia on days 13, 15 and 17, through the period of HDM challenge. On day 18, 24 hrs after the final HDM challenge, the mice were sacrificed with an excess dose of sodium pentobarbitone administered intraperitoneally (200 μl total volume).

[2] = test system: CCL20; assay: CCL20 expression/release in airway wall or lung homogenates of HDM-allergic mice; format: in vivo, BALB/c mice; conditions: HDM-sensitized and challenged mice
Method: Total RNA was isolated with mirVana m/miRNA Isolation kit (Ambion) from lower airway tissue that was separated by blunt dissection allowing effective separation of the airway wall from the parenchyma (Mattes, 2009). quantitative RT-PCR (qRT-PCR) was performed with SYBR® Green (Invitrogen) using an Eppendorf […] (threshold cycle) quantification was performed using Eppendorf Realplex analysis software 2.2. Mouse mRNA expression was normalised to HPRT, human mRNA to GAPDH. Fold change was calculated using delta delta CT values relative to control groups.

[3] = test system: peribronchial lymph node cells; assay: Cytokine release from in-vitro HDM-stimulated peribronchial lymph node cells; format: in vivo, BALB/c mice; conditions: HDM-sensitized and challenged mice
Method: Peribronchial lymph node cells were excised, filtered, and cultured in the presence or absence of 50 mcg/ml HDM (optimal concentration) for 6 days. IL-13, IL-5, and IFN-γ were determined by ELISA (BD Biosciences Pharmingen).

[4] = test system: ovalbumin-challenged mice; conditions: OVA 3x a week for 3 months, AAL(S) daily
Source text: (§1) The inventors then determined the ability of AAL(S) to protect against airway fibrosis in two mouse models, a chronic ovalbumin model of allergic airways disease and an acute bleomycin-induced fibrosis model.
Mice received ovalbumin (OVA)+alumn IP at day 0 and 2 weeks. Mice then received OVA 3× a week for 3 months. AAL treated mice received AAL(S) daily throughout the 3 month challenge period.

[5] = target: PP2A (Mus musculus, UniProt P63330); conditions: HDM-allergic mice, daily intranasal treatment
Method: PP2a activity was measured by R&D Systems PP2A DuoSet IC activity assay kit according to the manufacturer's instructions. This was performed on homogenized mouse lungs and harvested BEAS-2B cells.

[6] = test system: bleomycin-treated mice; conditions: bleomycin intratracheally, sacrificed after 23 days; AAL(S) daily
Source text: as §1
In the bleomycin model, mice received bleomycin intratracheally and were sacrificed after 23 days. AAL(S) treated mice received AAL(S) daily post bleomycin administration.

[7] = test system: sphingosine-1-phosphate receptors; conditions: Don et al., 2007; cited from earlier work
[8] = target: sphingosine kinase 2 (Homo sapiens, UniProt Q9NRA0); conditions: Don et al., 2007; cited from earlier work
[9] = test system: HDM-allergic mice; assay: AHR measurement in house dust mite (HDM)-induced allergic airways disease; format: in vivo, BALB/c mice; conditions: HDM-sensitized and challenged mice; treatment during allergen challenge
Method: Mice were sensitized and challenged by exposing them intranasally to house dust mite (HDM) (50 mcg daily at day 0, 1, and 2 followed by 5×5 mcg daily from day 14 to day 17 delivered in 50 μl of sterile saline). The single dose of HDM employed in initial studies was 50 mcg/50 μl of sterile saline. Non-sensitized mice received sterile saline only.
AHR was assessed invasively in separate groups of anesthetized mice by measurement of total lung resistance and dynamic compliance. Percentage increase over baseline (water) in response to nebulised methacholine was calculated.
Specifically, allergic mice were treated with a commercially available (Ambion) in-vitro validated small interfering (si)RNA directed against Midline-1 (SEQ ID NO:3) (MID1 siRNA) or a scrambled nonsense siRNA (control) following previously established protocols. BALB/c mice were anesthetised with isoflurane before being sensitised with the intranasal administration of either 50 μg House Dust Mite antigen (HDM) in 50 μl of sterile saline or 50 μl of sterile saline in control groups. This sensitisation was repeated at days 1 and 2 following initial sensitisation. On day 14 following initial sensitisation the mice were again anesthetised with isoflurane before receiving intranasal challenge with 5 μg of HDM in […] of sterile water. This challenge dosage was repeated daily from day 14 through 17. Mice received intranasal administration of maked Mid-1 siRNA or scramble control in 25 μl of saline under isoflurane anaesthesia on days 13, 15 and 17, through the period of HDM challenge. On day 18, 24 hrs after the final HDM challenge, the mice were sacrificed with an excess dose of sodium pentobarbitone administered intraperitoneally (200 μl total volume).

[10] = in vivo; cited from earlier work
[11] = target: T1, PP2A (Homo sapiens, UniProt P67775); assay: PP2A activity in HDM-stimulated human bronchial epithelial cells (BEAS-2B); format: cell-based; conditions: BEAS-2B + crude HDM extract, 24 hours; salbutamol 0.1, 1, 10 μM; mitoxantrone analogue 1, 5, 25 μg/ml; AAL(s) 0.5, 2 μM
T1 construct: endogenous in cells; host or cells: BEAS-2B
Method: • Activation of PP2A The inventors have examined the ability of known PP2A agonists to influence PP2A activity in human bronchial epithelial cells stimulated with crude house dust mite extract. Immortalised human bronchial epithelial cells (BEAS-2B) were seeded at 1×10^5 cells/well in 12-well tissue culture plates and allowed to reach 80% confluency. Cells were then treated with either salbutamol, a mitoxantrone analogue, or AAL(s), at a range of tolerable concentrations (0.1, 1 and 10 μM for salbutamol; 1, 5 and 25 μg/ml for the nitoxantrone analaogue; and 0.5 and 2 μM for AAL(s)). Simultaneously, cells were stimulated with crude House Dust Mite (HDM) extract and left for 24 hours. Cells were then collected, washed, lysed, and PP2A activity assayed (R&D Systems), measuring phosphatase activity when fed a synthetic substrate. PP2A activity was reduced upon HDM stimulation compared to the non-stimulated media only group (representing physiologically normal activity levels).

[12] = HDM-allergic and challenged mice

T1 sequence (P67775 whole entry): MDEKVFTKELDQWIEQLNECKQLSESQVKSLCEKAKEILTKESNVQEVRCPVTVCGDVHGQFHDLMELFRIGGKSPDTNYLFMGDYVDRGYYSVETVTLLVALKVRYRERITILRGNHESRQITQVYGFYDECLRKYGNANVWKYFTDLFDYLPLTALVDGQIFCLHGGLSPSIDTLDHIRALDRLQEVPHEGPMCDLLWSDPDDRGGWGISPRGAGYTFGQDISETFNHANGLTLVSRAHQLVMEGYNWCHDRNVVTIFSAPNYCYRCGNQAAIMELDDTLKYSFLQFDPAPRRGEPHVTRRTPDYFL
T1 sequence (P30153 whole entry partner): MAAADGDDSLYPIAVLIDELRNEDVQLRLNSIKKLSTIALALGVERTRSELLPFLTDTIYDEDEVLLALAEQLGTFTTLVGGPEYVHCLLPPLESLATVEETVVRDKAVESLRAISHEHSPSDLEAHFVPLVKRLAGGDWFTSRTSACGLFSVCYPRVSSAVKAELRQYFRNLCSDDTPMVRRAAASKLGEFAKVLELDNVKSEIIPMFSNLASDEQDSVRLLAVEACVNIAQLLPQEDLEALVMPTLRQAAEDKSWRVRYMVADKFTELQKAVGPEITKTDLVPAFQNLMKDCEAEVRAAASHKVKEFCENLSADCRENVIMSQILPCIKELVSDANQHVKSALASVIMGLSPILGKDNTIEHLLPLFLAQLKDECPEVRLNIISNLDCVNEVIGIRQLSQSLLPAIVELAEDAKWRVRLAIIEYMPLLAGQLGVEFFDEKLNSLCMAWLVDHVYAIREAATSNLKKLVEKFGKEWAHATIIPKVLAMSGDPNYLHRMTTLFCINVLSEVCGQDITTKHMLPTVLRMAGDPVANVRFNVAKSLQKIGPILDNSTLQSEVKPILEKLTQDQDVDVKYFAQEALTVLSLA
Sequence of PP2A (Mus musculus, UniProt P63330) (P63330 whole entry): as the sequence (P67775 whole entry) above, with V5L counted along it
Sequence of PP2A (Mus musculus, UniProt P63330) (Q76MZ3 whole entry partner): as the sequence (P30153 whole entry partner) above, with S324T counted along it
Sequence of sphingosine kinase 2 (Q9NRA0 whole entry, species assumed): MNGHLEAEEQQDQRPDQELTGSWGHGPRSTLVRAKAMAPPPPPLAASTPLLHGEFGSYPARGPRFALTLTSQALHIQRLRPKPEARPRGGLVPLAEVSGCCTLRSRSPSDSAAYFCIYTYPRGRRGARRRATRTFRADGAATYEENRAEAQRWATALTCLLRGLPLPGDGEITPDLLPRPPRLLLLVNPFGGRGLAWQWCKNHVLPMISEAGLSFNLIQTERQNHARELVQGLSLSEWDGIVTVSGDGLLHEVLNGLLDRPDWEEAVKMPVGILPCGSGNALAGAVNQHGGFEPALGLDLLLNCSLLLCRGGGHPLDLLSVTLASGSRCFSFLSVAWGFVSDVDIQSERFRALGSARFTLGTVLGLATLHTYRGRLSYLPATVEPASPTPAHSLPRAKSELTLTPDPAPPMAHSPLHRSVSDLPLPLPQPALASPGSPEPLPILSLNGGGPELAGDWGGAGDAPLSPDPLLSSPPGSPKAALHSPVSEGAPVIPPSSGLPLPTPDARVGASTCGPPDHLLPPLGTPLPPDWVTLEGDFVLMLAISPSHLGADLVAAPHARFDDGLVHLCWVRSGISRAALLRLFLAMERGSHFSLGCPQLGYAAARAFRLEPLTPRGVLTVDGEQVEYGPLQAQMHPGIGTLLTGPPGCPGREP

Compound | airways inflammation ([1]; HDM-sensitized and challenged mice, treatment during allergen challenge) | CCL20 release (levels in lung homogenates) [2] | Th2 cytokine release in allergen-stimulated peribronchial lymphnode cultures [3] | lung function (forced vital capacity and forced expiratory volume in 100 milliseconds) [4] | airways fibrosis (collagen deposition surrounding the airways) ([4]; wildtype BALB/c mice) | PP2A activity in the lungs [5] | collagen deposition in airways [6] | binding to sphingosine-1-phosphate receptors [7] | phosphorylation by sphingosine kinase 2 [8] | airways hyperresponsiveness (total lung resistance in response to inhaled methacholine) [9] | lymphopenia [10] | PP2A activity (phosphatase activity on synthetic substrate) [11] | eosinophils (BALF) [1, 12] | lymphocytes (BALF) [1, 12] | neutrophils (BALF) [1, 12]
CCCCCCCOc1ccc(CCC(C)(N)CO)cc1 [AAL(S), 2-amino-4-(4-heptyloyphenol)-2-methylbutanol] | precluded the development | reduced | reduced | improved | protected | reactivates PP2A in the lungs | protected | does not bind | cannot be phosphorylated | precluded the development | does not cause lymphopenia | fully restored |  |  | 
CCCCCCCCc1ccc(CCC(N)(CO)CO)cc1 [FTY720] |  | reduced |  |  |  |  |  |  |  | reduced |  |  | reduced | reduced | reduced
CCCCCCCCc1ccc(CCC(N)(CO)COP(=O)(O)O)cc1 (stereo not drawn) [pFTY720] |  |  |  |  |  |  |  |  |  | partial reduction |  |  | partial reduction |  | partial reduction
CC(C)(C)NCC(O)c1ccc(O)c(CO)c1 (stereo not drawn) [salbutamol] |  |  |  |  |  |  |  |  |  |  |  | restore PP2A activity to a significant level |  |  | 
